Laboratory results taken from US20130029981A1, “COMPOUNDS, COMPOSITIONS, AND METHODS FOR CONTROLLING BIOFILMS” (Katholieke Universiteit Leuven, priority 2009, published 2013).
Where two headings read alike, the source gives them in different places.

System: S. Typhimurium ATCC14028
Assay: Static peg assay for prevention of biofilm formation (Calgary device, crystal violet)
Format: cell-based, Salmonella Typhimurium
Description: (§1) Evaluation of the biofilm inhibitory activity of some substituted 2-amino-1H-imidazoles of the invention was carried out by growing up biofilms of S. Typhimurium ATCC14028 or SL1344 or Pseudomonas aeruginosa PA14 in the presence of different concentrations (1/2 dilution series) of biofilm inhibitors, by using the Calgary biofilm device. After an incubation period of 24 hours at 25° C. or 37° C. or 48 hours at 16° C. the biofilms were visualized by crystal violet staining. In the next step the stain was extracted from the biofilm with 30% acetic acid. The absorbance of the resolubilized stain at 570 nm is a measure of the amount of biofilm formed.
In examples 2 and 3, the following materials and methods were used.
The device used for biofilm formation is a platform carrying 96 polystyrene pegs (Nunc no. 445497) that fits as a microtiter plate lid with a peg hanging into each microtiter plate well (Nunc no. 269789). Biofilm formation assays were carried out at 16° C., 25° C. and 37° C.
For biofilm assays at 16° C. and 25° C., two-fold serial dilutions of the compounds in 100 μl liquid TSB 1/20 broth per well were prepared in the microtiter plate. Subsequently, an overnight culture of S. Typhimurium ATCC14028 or SL1344 (grown up in LB medium) was diluted 1:100 into TSB 1/20 broth and 100 μl (ca. 10^6 cells) was added to each well of the microtiter plates, resulting in a total amount of 200 μl medium per well. The pegged lid was placed on the microtiter plate and the plate was incubated for 48 hours at 16° C. or for 24 hours at 25° C. without shaking. During this incubation period biofilms were formed on the surface of the pegs. In case of the assay at 16° C., after 24 hours the lid was transferred into a new plate with medium and the specific molecules used for testing. […] For quantification of biofilm formation, the pegs were washed once in 200 μl phosphate buffered saline (PBS). The remaining attached bacteria were stained for 30 minutes with 200 μl 0.1% (w/v) crystal violet in an isopropanol/methanol/PBS solution (v/v 1:1:18). Excess stain was rinsed off by placing the pegs in a 96-well plate filled with 200 μl distilled water per well. After the pegs were air dried (30 min), the dye bound to the adherent cells was extracted with 30% glacial acetic acid (200 μl). The OD570 of each well was measured using the VERSAmax microtiter plate reader. The IC50 value for each compound was determined from concentration gradients in two or three independent experiments (with 2 or 3 repeats per experiment), by using the GraphPad software of Prism.
For biofilm assays at 37° C., two-fold serial dilutions of the compounds in 50 μl liquid CFA broth per well were prepared in the microtiter plate. Subsequently, an overnight culture of S. Typhimurium ATCC 14028 was diluted 1:100 into CFA broth and 100 μl (ca. 10^6 cells) was added to each well of the microtiter plates, resulting in a total amount of 150 μl medium per well. The pegged lid was placed on the microtiter plate and the plate was incubated for 24 hours at 37° C. without shaking. During incubation the plates were placed in a humidity controlled container to prevent evaporation of the growth medium. Quantification of biofilm formation was performed similarly as described above for the assays at 16° C. and 25° C.
as §1, with “imidazo[1,2-a]pyrimidinium bromide salts” for “2-amino-1H-imidazoles”

[1] = 25° C., strain not given, read-out: IC(50), preventive activity against S. typhimurium biofilms
[2] = 25° C., 24 hours, Table 15, read-out: (1) IC50 (biofilm inhibition)
[3] = 25° C., Table 16, read-out: S. Typhimurium IC50 (biofilm formation)
[4] = S. Typhimurium ATCC 14028, 25° C., read-out: S. Typhimurium IC50 (biofilm formation)
[5] = Salmonella enterica, 25° C., 24 hours, Table 15, read-out: (1) IC50 (biofilm inhibition)
[6] = S. Typhimurium ATCC 14028, 25° C., read-out: IC50 for biofilm inhibition (25° C.)
[7] = 25° C., Table 11, read-out: IC50 (biofilm formation)
[8] = 25° C., Table 14, read-out: IC50 biofilm inhibition
[9] = 25° C., Table 19, read-out: IC50 (biofilm formation)

CCCCCc1cn(CCNc2nc(-c3ccc(C)cc3)c(-c3ccc(Cl)cc3)[nH]2)nn1 [R3=p-ClPh; R4=p-MePh; R9=Pentyl; n=2]
IC50 [1]: 371 µM

Clc1ccc(-c2cnc(NCCn3cc(C4CCCCC4)nn3)[nH]2)cc1Cl [R3=3,4-diClPh; R4=H; R9=c-hexyl; n=2]
IC50 [1]: 55.2 µM

CCCc1cn(CCCNc2ncc(-c3ccc(Br)cc3)[nH]2)nn1 [R3=4-BrPh; R4=H; R9=propyl; n=3]
IC50 [1]: 35.3 µM

CCCCCCCCCCN1c2nccc[n+]2CC1(O)c1ccc(F)cc1 (stereo not shown) [Compound 40]
IC50 [2]: 20 µM | IC50 [3]: 20 µM

Fc1ccc(-c2cnc(NCCn3cc(C4CCCC4)nn3)[nH]2)cc1 [R3=4-FPh; R4=H; R9=c-pentyl; n=2]
IC50 [1]: 128 µM

CNc1ncc(-c2ccc(O)cc2)[nH]1 [Compound 113]
IC50 [4]: 160 µM

CN1c2nccc[n+]2CC1(O)c1ccc(Cl)cc1 (racemic) [Compound 15]
IC50 [3]: 225 µM

CCCCCCCCCCN1c2nccc[n+]2CC1(O)c1cccc(Br)c1 (stereo not shown) [1-decyl-2-hydroxy-2-(3-bromophenyl)-2,3-dihydro-1H-imidazo[1,2-a]pyrimidin-4-ium bromide]
IC50 [5]: 33.8 µM

c1ccc(-c2ccc(-c3c[nH]c(NC4CCCC4)n3)cc2)cc1 [R1=H, R2=cyclopentyl, R3=H, R4=Bi—Ph]
IC50 [6]: 46 µM

CCCc1cn(CCNc2ncc(-c3ccc(Br)cc3)[nH]2)nn1 [R3=4-BrPh; R4=H; R9=propyl; n=2]
IC50 [1]: 25.3 µM

CCCCCCCCCCN1c2nccc[n+]2CC1(O)c1ccc(-c2ccc([N+](=O)[O-])cc2)cc1 (stereo not shown) [1-decyl-2-hydroxy-2-(4′-nitro[1,1′-biphenylyl]-4-yl)-2,3-dihydro-1H-imidazo[1,2-a]pyrimidin-4-ium bromide]
IC50 [2]: 200 µM

COc1ccc(CN2c3nccc[n+]3CC2(O)c2ccc([N+](=O)[O-])cc2)cc1 (stereo not shown) [R1=p-MeOBn, R3=4-NO2-Ph, R4=H, 1-(4-methoxybenzyl)-2-hydroxy-2-(4-nitrophenyl)-2,3-dihydro-1H-imidazo[1,2-a]pyrimidin-4-ium bromide]
IC50 (Salmonella enterica, 25° C., Table 11, read-out: IC50 (biofilm formation)): 220 µM | IC50 (Salmonella enterica, 25° C., Table 14, read-out: IC50 biofilm inhibition): 220 µM

CCCCN1c2nccc[n+]2CC1(O)c1ccc(OC)cc1 (stereo not shown) [Compound 45]
IC50 [3]: 314 µM

c1ccc(-c2cn(CCNc3ncc(-c4ccccc4)[nH]3)nn2)cc1 [R3=Ph; R4=H; R9=Phenyl; n=2]
IC50 [1]: 36.5 µM

CCCc1cn(CCCNc2ncc(-c3ccc(Cl)c(Cl)c3)[nH]2)nn1 [R3=3,4-diClPh; R4=H; R9=propyl; n=3]
IC50 [1]: 31.8 µM

O=[N+]([O-])c1ccc(-c2c[nH]c(NC3CCCC3)n2)cc1 [R1=H, R2=cyclopentyl, R3=H, R4=p-NO2—Ph]
IC50 [6]: 12 µM

c1ccc(-c2cn(CCCNc3ncc(-c4ccccc4)[nH]3)nn2)cc1 [R3=Ph; R4=H; R9=phenyl; n=3]
IC50 [1]: 40 µM

CCCCN1c2nccc[n+]2CC1(O)c1ccc(Br)cc1 (stereo not shown) [Compound 41]
IC50 [7]: 64.9 µM | IC50 [8]: 64.9 µM | IC50 [3]: 90.1 µM

Cc1ccc(-c2cn(CCNc3ncc(-c4ccc(Br)cc4)[nH]3)nn2)cc1 [R3=4-BrPh; R4=H; R9=p-MePh; n=2]
IC50 [1]: > 800 µM

CCCCNc1nc(-c2ccccc2)c[nH]1 [R1=H, R2=Butyl, R3=H, R4=Ph]
IC50 [6]: 25 µM

Brc1ccc(-c2cnc(NCCn3cc(C4CCCCC4)nn3)[nH]2)cc1 [R3=4-BrPh; R4=H; R9=c-hexyl; n=2]
IC50 [1]: 8.4 µM

COc1cccc(CCN2c3nccc[n+]3CC2(O)c2ccc([N+](=O)[O-])cc2)c1 (stereo not shown) [Compound 75]
IC50 [7]: 124 µM | IC50 [8]: 124 µM | IC50 [9]: 124 µM

CCCCN1c2nccc[n+]2CC1(O)c1ccc(F)cc1 (stereo not shown) [Compound 38]
IC50 [7]: 175 µM | IC50 [8]: 175 µM | IC50 [3]: 163 µM

CN1c2nccc[n+]2CC1(O)c1ccc(F)cc1 (stereo not shown) [Compound 37]
IC50 [3]: > 800 µM

CCCCCCCCCCN1c2nccc[n+]2CC1(O)c1ccc(OC)cc1 (stereo not shown) [Compound 47]
IC50 [2]: 18.6 µM | IC50 [3]: 18.6 µM

CNc1nc(-c2ccc(F)cc2)c[nH]1 [R1=H, R2=Methyl, R3=H, R4=p-F—Ph]
IC50 [6]: 102 µM

O=[N+]([O-])c1ccc(C2(O)C[n+]3cccnc3N2Cc2ccccc2)cc1 (stereo not shown) [Compound 72]
IC50 [7]: 222 µM | IC50 [8]: 222 µM | IC50 [9]: 174 µM

CCCCCCCCCCN1c2nccc[n+]2CC1(O)c1ccc(SC)cc1 (stereo not shown) [1-decyl-2-hydroxy-2-(4-methylthiophenyl)-2,3-dihydro-1H-imidazo[1,2-a]-pyrimidin-4-ium bromide]
IC50 [5]: 45.7 µM

CCCCCc1ccc(-c2cn(CCCNc3ncc(-c4ccc(Br)cc4)[nH]3)nn2)cc1 [R3=4-BrPh; R4=H; R9=p-PenPh; n=3]
IC50 [1]: > 800 µM

CC(C)(C)c1ccc(-c2cn(CCCNc3ncc(-c4ccc(Cl)c(Cl)c4)[nH]3)nn2)cc1 [R3=3,4-diClPh; R4=H; R9=p(t-Bu)Ph; n=3]
IC50 [1]: 17.8 µM

CCCCCCCCCCN1c2nccc[n+]2CC1(O)c1ccc(Cl)c(Cl)c1 (stereo not shown) [Compound 50]
IC50 [2]: 32.4 µM | IC50 [3]: 32.4 µM

COc1ccc(-c2cn(CCNc3ncc(-c4ccc(Cl)c(Cl)c4)[nH]3)nn2)cc1 [R3=3,4-diClPh; R4=H; R9=p-MeOPh; n=2]
IC50 [1]: > 800 µM

Fc1ccc(-c2cnc(NCCn3cc(C4CC4)nn3)[nH]2)cc1 [R3=4-FPh; R4=H; R9=c-propyl; n=2]
IC50 [1]: 93.3 µM

CC(C)CN1c2nccc[n+]2CC1(O)c1ccc(Br)cc1 (stereo not shown) [Compound 42]
IC50 [3]: 5.2 µM

CCCCCCCC[n+]1c(-c2ccc(-c3ccc(-c4ccccc4)cc3)cc2)cn2cccnc21.[O-][Cl+3]([O-])([O-])[O-] [1-octyl-2-([1,1′:4′,1″-terphenyl]-4-yl)-imidazo[1,2-a]pyrimidin-1-ium perchlorate]
IC50 (Salmonella enterica, 24 h, read-out: (1) IC50 (biofilm inhibition)): 5.03 µM

CCCCCCCc1cn(CCNc2ncc(-c3ccc(Br)cc3)[nH]2)nn1 [R3=4-BrPh; R4=H; R9=heptyl; n=2]
IC50 [1]: 189 µM

CCCCCCCCCCN1c2nccc[n+]2CC1(O)c1cccc2ccccc12 (stereo not shown) [1-decyl-2-hydroxy-2-(1-naphthalenyl)-2,3-dihydro-1H-imidazo[1,2-a]pyrimidin-4-ium bromide]
IC50 [5]: 68.9 µM

Cc1ccc(-c2c[nH]c(NC(C)C)n2)cc1 [R1=H, R2=i-Propyl, R3=H, R4=p-Me—Ph]
IC50 [6]: 99 µM

Brc1ccc(-c2cnc(NCCn3cc(C4CC4)nn3)[nH]2)cc1 [R3=4-BrPh; R4=H; R9=c-propyl; n=2]
IC50 [1]: 2.02 µM

Clc1ccc(-c2cnc(NCCCn3cc(C4CCCCC4)nn3)[nH]2)cc1Cl [R3=3,4-diClPh; R4=H; R9=c-hexyl; n=3]
IC50 [1]: 26.8 µM

CCCCCN1c2nccc[n+]2CC1(O)c1ccc(Br)cc1 (stereo not shown) [Compound 43]
IC50 [3]: 1.7 µM

CCCCNc1nc(-c2ccc(Br)cc2)c[nH]1 [R1=H, R2=Butyl, R3=H, R4=p-Br—Ph]
IC50 [6]: 7 µM

CCCCNc1nc(-c2ccc(OC)cc2)c[nH]1 [R1=H, R2=Butyl, R3=H, R4=p-MeO—Ph]
IC50 [6]: 49 µM

CNc1ncc(-c2ccc(F)c(F)c2)[nH]1 [Compound 112]
IC50 [4]: 602 µM

CN1c2nccc[n+]2CC1(O)c1cccc([N+](=O)[O-])c1 (stereo not shown) [Compound 44]
IC50 [3]: 564 µM

CCCc1cn(CCNc2ncc(-c3ccc(Cl)c(Cl)c3)[nH]2)nn1 [R3=3,4-diClPh; R4=H; R9=propyl; n=2]
IC50 [1]: 35.6 µM
